Assay results: publication PMC9403717, “Ruthenium complexes show potent inhibition of AKR1C1, AKR1C2, and AKR1C3 enzymes and anti-proliferative action against chemoresistant ovarian cancer cell line” (Frontiers in Pharmacology, 2022)
Numbering of substitutions follows the chain as printed. Read-outs that look alike come from different tables or passages of the source.

Tests used:
AKR1C2 [1] = target: T1, AKR1C2 (Homo sapiens, UniProt P52895); parameters: method as in Bauman et al., 2005; details: ref Bauman et al., 2005; cited from earlier work
T1 construct: made in house
T1 sequence (P52895 1-323): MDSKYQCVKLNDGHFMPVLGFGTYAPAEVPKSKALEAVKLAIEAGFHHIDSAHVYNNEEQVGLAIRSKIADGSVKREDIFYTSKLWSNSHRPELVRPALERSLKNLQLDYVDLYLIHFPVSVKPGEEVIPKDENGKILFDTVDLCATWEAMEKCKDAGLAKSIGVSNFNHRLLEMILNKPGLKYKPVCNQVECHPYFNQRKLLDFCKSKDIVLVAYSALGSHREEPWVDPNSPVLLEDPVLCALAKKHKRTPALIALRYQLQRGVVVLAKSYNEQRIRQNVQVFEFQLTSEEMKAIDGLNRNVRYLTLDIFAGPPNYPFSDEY

COV362 cells [2] = experiment: Cell proliferation assay (alamarBlue), chemoresistant ovarian cancer cell line COV362; format: cell-based, human; details: for IC50: 48 h incubation
Procedure: (§1) The cell line COV362 (CVCL_2,420) was originally established from a high-grade ovarian serous adenocarcinoma from a metastatic site in the pleural effusion ([van den Berg-Bakker et al., 1993]) and was purchased from ECACC (ECACC 07071910) as p37 on 13 October 2017. The growth medium for COV362 cells was DMEM (D5546; Sigma–Aldrich GmbH), with 10% FBS (F9665; Sigma–Aldrich GmbH) and 2 mM L-glutamine (G7513; Sigma–Aldrich GmbH). COV362 cells in passages p37 + 12 to p37 + 17 were used in this study and seeded at a concentration of 3.5 cells/ml × 10^4 cells/ml for proliferation studies and at a concentration of 5.3 × 10^5/ml for migration studies. The cell line OVCAR-4 (CVCL_1,627) is a high-grade serous ovarian adenocarcinoma cell line established from a patient refractory to cisplatin ([Johnson et al., 1997]). The cell line was purchased from Merck on 19 March 2021. The growth medium for OVCAR-4 cells was RPMI-1640 (Sigma R5586) supplemented with 2 mM glutamine (G7513; Sigma–Aldrich GmbH), 10% FBS (F9665; Sigma–Aldrich GmbH), 0.25 μg/ml insulin (I9278; Sigma–Aldrich GmbH). OVCAR-4 cells in passages p+6 to p+15 were used in this study and seeded at a concentration of 6 cells/ml × 10^4 cells/ml. The control cell line HIO80 (CVCL_E274) was obtained from Andrew K. Godwin (University of Kansas Medical Center, Kansas, United States) on 20 October 2017 as p+72. It was originally established from ovarian surface epithelium ([Yang et al., 2004]). HIO80 cells were grown in RPMI medium (R5886, Sigma–Aldrich GmbH) supplemented with 10% FBS (F9665; Sigma–Aldrich GmbH), 2 mm L-glutamine (G7513; Sigma–Aldrich GmbH) and 6.6 µg/ml insulin (I9278; Sigma–Aldrich GmbH). HIO80 cells in passages p72 + 8 to p72 + 19 were used in this study and seeded at a concentration of 2 × 10^4 cells/mL. HIO80 in passage +10 was authenticated by short tandem repeats (STR) profiling performed by ATCC on 22 February 2019. Cells were grown in a humidified atmosphere containing 5% CO2 at 37°C. All cell lines were negative for mycoplasma infection which was periodically tested using MycoAlert^TM mycoplasma detection kit (Lonza, Basel, Switzerland).
(§2) The effect of ruthenium compounds on the proliferation of ovarian cancer cell lines COV362 and OVCAR-4 and the control cell line HIO80 was analyzed using the cell proliferation reagent alamarBlue HS (A50101; Thermo Fisher Scientific) following the manufacturer’s instructions.
(§3) Cells were seeded in 96-well plates in 100 µL of medium and allowed to adhere and grow for 24 h. […] Cisplatin and carboplatin purchased from Sigma–Aldrich GmbH (cat. number: PHR1624, lot: LRAB7778) and (cat. number: C2538, lot: MKCK1243) were dissolved in sterile water. Working solutions were prepared by a serial dilution of stock solutions with a culture medium. After the initial incubation, cells were treated with ruthenium complexes, cisplatin, and carboplatin. A range of final concentrations between 0.001 and 300 µM were used for ruthenium complexes and cisplatin, and between 0.001 µM and 1 mM for carboplatin. After 48 h of incubation, plates were incubated with 20 µL of alamarBlue. After 4 h absorbance was measured with a BioTek microplate spectrophotometer at 570 nm, with the reference wavelength set at 600 nm. First, the background value of a well containing the active substance without cells was subtracted, then the average values for duplicates/triplicates were calculated. The absorbance of the well containing only untreated cells was used as a normalization control. The half-maximal […] concentration (IC50) was determined for all ruthenium complexes with a growth-inhibiting effect on cells by constructing a dose-response curve (Graph Pad Prism, Version 8.0).

OVCAR-4 cells = experiment: Cell proliferation assay (alamarBlue), OVCAR-4; format: cell-based, human; details: OVCAR-4; 48 h incubation
Procedure: as §1, §2, §3

HIO80 cells = experiment: Cell proliferation assay (alamarBlue), control cell line HIO80; format: cell-based, human; details: 48 h incubation
Procedure: as §1, §2, §3

COV362 cells [3] = experiment: Cell migration assay (Ibidi culture inserts), COV362; format: cell-based, human; details: 100 μM, 24 and 48 h
Procedure: Cell migration assay was performed using Ibidi® three-well culture inserts. The inserts were placed in six-well plates. In total, 70 µL of cell suspension was seeded in the inserts and allowed to adhere and grow for 24 h. When the cells formed a confluent monolayer, the inserts were carefully removed and the cells were washed two times with DPBS. Cells were treated with 100 μM (final concentration) of compounds 8, 9, cisplatin, and carboplatin in 2 ml of growth medium. Cells treated with a medium containing the same volume of sterile water or DMSO were used as the controls. Images of cell gaps were taken with Axio Scope A1 Polarized Light Microscope (Zeiss) at the time of treatment, 24 and 48 h after, and analyzed using ImageJ software.

AKR1C2 [4] = target: T1, AKR1C2; experiment: Inhibition of recombinant AKR1C2, oxidation of 1-acenaphthenol, progress-curve analysis; format: biochemical; details: AKR1C2
Procedure: (§4) To investigate the effect of ten selected ruthenium compounds, we measured their effect on the time course of oxidation of the artificial substrate 1-acenaphtenol by recombinant enzymes AKR1C1–3. The recombinant enzymes AKR1C1–AKR1C3 were prepared as described previously ([Brozic et al., 2006]). Since the artificial substrate is racemic, the oxidation follows a double exponential pattern as described previously ([Traven et al., 2015]). The in vitro catalytic activity of AKR1C1–3 enzymes was determined spectrophotometrically by monitoring the increase in NADH absorbance at 340 nm (ε(λ340) = 6220 M^−1cm^−1) in the presence of the substrate 1-acenaphthenol. Enzymatic reactions (300 µL) were performed in 100 mm potassium phosphate buffer (pH 9.0), 0.005% (v/v) TritonX-114, 5% (v/v) DMSO, containing 2.3 mm NAD^+ and 1-acenaphthenol at final concentrations of 90, 180, and 250 µM for AKR1C1, AKR1C2, and AKR1C3, respectively. A total of 5 µL of a tested compound in DMSO was added to the reaction mixture. The final concentrations of the tested compounds ranged from 1 to 200 μM, depending on the extent of inhibition (Supplementary Data). The reaction was started by adding 15 µL of AKR1C1, AKR1C2, or AKR1C3 dissolved in 1x PBS (pH 7.3) at final concentrations of 0.11, 0.16, and 1.5 µM, respectively. AKR1C1–3 activity was measured at 37°C for 3 h without shaking using a PowerWave XS microplate reader (Biotek; Winooski, VT, United States). Measurements at seven different concentrations were performed in duplicates or triplicates (Supplementary Figures S2). To mechanistically explain all the obtained progress curves for each ruthenium complex on each enzyme by a common reaction scheme, we extended the originally proposed scheme so that the interaction of the ruthenium complex with apo- and holoenzyme was allowed to be rapid and followed by a slow irreversible association of a second ruthenium complex molecule. However, the affinity of the Ru complexes for the apoenzymes was much lower so this part was excluded from the proposed kinetic model for clarity (Figure 4).
(§5) FIGURE 4 Reaction scheme for the oxidation of 1-acenaphtenol by AKR1C1-3 and its inhibition by ruthenium compounds. E represents apoenzyme, E-NAD and E-NADH represent holoenzyme with bound NAD^+ and NADH, respectively. A and B are enantiomers of substrate 1-acenaphtenol. Symbols which include I (ruthenium compound) represent holoenzyme in complex with one or two inhibitor molecules. KNAD, KNADH, and K2-3 are equilibrium constants and k+2–3 are second-order association rate constants for the binding of the second inhibitor molecule to the enzyme. The progress curves for each enzyme in the presence of ruthenium complexes were analyzed by the WEB server ENZO (https://enzo.cmm.ki.si/) designed exactly for such purposes ([Bevc et al., 2011]).

AKR1C1 = target: T2, AKR1C1 (Homo sapiens, UniProt Q04828); experiment: Inhibition of recombinant AKR1C1, oxidation of 1-acenaphthenol, progress-curve analysis; format: biochemical
T2 construct: made in house
T2 sequence (Q04828 1-323): T1 sequence (P52895 1-323) with V38T, H47R, V54L, S87C, M151V, H170R, L172Q
Procedure: as §4, §5

AKR1C3 [5] = target: T3, AKR1C3 (Homo sapiens, UniProt P42330); experiment: Inhibition of recombinant AKR1C3, oxidation of 1-acenaphthenol, progress-curve analysis; format: biochemical; details: AKR1C3
T3 construct: made in house
T3 sequence (P42330 1-323): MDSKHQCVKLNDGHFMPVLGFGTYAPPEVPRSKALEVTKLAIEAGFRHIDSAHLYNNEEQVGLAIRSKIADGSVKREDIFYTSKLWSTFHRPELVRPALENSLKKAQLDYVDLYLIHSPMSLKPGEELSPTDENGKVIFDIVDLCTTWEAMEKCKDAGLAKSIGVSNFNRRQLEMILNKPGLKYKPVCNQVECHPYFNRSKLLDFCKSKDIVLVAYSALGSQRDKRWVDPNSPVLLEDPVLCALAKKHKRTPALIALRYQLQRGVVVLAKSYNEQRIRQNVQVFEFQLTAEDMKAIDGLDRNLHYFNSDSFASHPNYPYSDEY
Procedure: as §4, §5

AKR1C3 [6] = target: T3, AKR1C3; parameters: method as in Traven et al., 2015; details: ref Traven et al., 2015; cited from earlier work
AKR1C3 [7] = target: T3, AKR1C3; parameters: method as in Qiu et al., 2007; details: ref Qiu et al., 2007; cited from earlier work
MCF-7 = details: ref Kljun et al., 2016; cited from earlier work
[8] = irreversible binding of second inhibitor molecule to E-NAD-I
[9] = reversible binding to holoenzyme E-NAD, read-out: K2

C[C@H](CCC(=O)O)[C@H]1CC[C@H]2[C@@H]3CC[C@@H]4CC(=O)CC[C@]4(C)[C@H]3CC[C@]12C [5β-cholanic acid-3-one]
Ki (AKR1C2 [1]): 0.021 µM

N.N.O=C([O-])C1(C(=O)[O-])CCC1.[Pt+2] [Carboplatin, reference compound]
IC50 (COV362 cells [2]): 272 µM
IC50 (OVCAR-4 cells): 73 µM
IC50 (HIO80 cells): 131 µM
effect on cell migration (in words) (COV362 cells [3]): Significant cell migration was observed

N.N.[Cl][Pt][Cl] [Cisplatin, reference compound]
IC50 (COV362 cells [2]): 13.6 µM
IC50 (OVCAR-4 cells): 4.16 µM
IC50 (HIO80 cells): 6.96 µM

Oc1c(I)cc(Cl)c2cccnc12 [Clioquinol, reference compound]
fold lower IC50 value compared to Ru-pta complex 8 (COV362 cells [2]): 1.9 fold
IC50 (COV362 cells [2]; Homo sapiens): 20.1 µM

CN(C)c1ccc(C(=O)C=C([O][Ru+][PH]23CN4CN(CN(C4)C2)C3)C(F)(F)F)cc1.Cc1ccc(C(C)C)cc1.F[P-](F)(F)(F)(F)F [Compound 4, (η^6-p-cymene)(4,4,4-trifluoro-1-(4-(dimethylamino)phenyl)-1,3-butandionato)(pta)ruthenium(II) hexafluorophosphate]
k+2 (AKR1C2 [4]; [8]): 1.9 M⁻¹ s⁻¹
Ki (AKR1C2 [4]; [9]): 340 µM
k+2 (AKR1C1; [8]): 1.4 M⁻¹ s⁻¹
Ki (AKR1C1; [9]): 86.9 µM
k+2 (AKR1C3 [5]; [8]): 1.8 M⁻¹ s⁻¹
Ki (AKR1C3 [5]; [9]): 441 µM

Cc1ccc(C(C)C)cc1.Cc1ccc(C(C)C)cc1.[Cl][Ru][Cl].[Cl][Ru][Cl] [Compound P1, [(η^6-p-cymene)RuCl(μ-Cl)]2]
Ki values (in words) (AKR1C3 [6]): nM Ki values

CC1(C)CC[C@@]2(CC[C@H]3[C@@H]4CCc5cc(C(N)=O)ccc5[C@H]4CC[C@@]32C)OC1=O [EM1404]
Ki (AKR1C3 [7]): 0.0069 µM

O=[N+]([O-])c1ccc(O)c2ncccc12 [Nitroxoline, reference compound]
fold lower IC50 compared to Ru-chlorido complex 9 (COV362 cells [2]): 4 fold
IC50 (COV362 cells [2]; Homo sapiens): 6.6 µM

Cc1ccc(C(C)C)cc1.[Cl][Ru]([Cl])[PH]12CN3CN(CN(C3)C1)C2 [RAPTA-C, reference compound]
IC50 (COV362 cells [2]): > 300 µM

[O-][n+]1ccccc1S [pyrithione]
IC50 values (in words) (MCF-7): low µM
